Tested on: naive CD4+CD25− T cells
Test: In vitro induction of iTregs by DCreg with cytokine blockade
Format: cell-based, mice
Conditions: blockade during co-culture (stage 1)
Method: In vitro T cell priming assays. To generate CD4^+CD25^−Foxp3^+ cells in vitro, Naive CD11c^+ dendritic cells (2×10^5) were cultured in 6-well, and stimulated with pVAX-Derp1 (10 μg/ml) plus Derp1 peotein (10 μg/ml) in the present of anti-IL10 or TGF-β for 48 hrs. Three groups of dendritic cells pretreated were added to culture medium with naive CD4^+CD25^− T cells (1×10^6) in RPMI 1640 each 48 hrs for 3 times. And then GFP expression in CD4^+CD25^− T cells were analyzed by FACS. To check the roles of cytokines during DCreg induce iTregs, we co-cultured CD11c^+ DC pretreated with pVAX-Derp1 (10 μg/ml) plus Derp1 peotein (10 μg/ml) with naive T cells, synchronously, plus anti-IL-10, anti-TGF-β or TGF-β receptor inhibitor, SB-525334 (14.3 nM) each 48 hrs for 3 times. […]
As reported, blockade of TGF-β and IL-10 could demolish the development and suppressive function of iTregs. […] The roles of TGF-β and IL-10 were detected during the induction of iTregs by DCreg in vitro. GFP expression in CD4^+CD25^− T cells was detected after 72 hrs of co-culture with CD11C^+ DCreg 3 times each two days in the presence of anti-IL-10 or anti-TGF-β as stage 1 in FIG. 13A. […]

Cc1cccc(-c2[nH]c(C(C)(C)C)nc2-c2ccc3nccnc3c2)n1 [SB-525334]
generation of CD4+CD25−GFP+ iTregs by DCreg: could decrease the iTreg induction

Reference: patent publication US20150044244A1, “COMBINED FACILITATOR, ANTIGEN AND DNA VACCINE FOR PREVENTING AND TREATING AUTOIMMUNE DISEASES” (BEIJING ADVANCCINE BIOTECHNOLOGY CO. LTD., priority 2011, published 2015)
